# In patent publication US20030162765A1, “2-amino-6-(2-substituted-4-phenoxy)-substituted-pyridines” (Pfizer Inc., priority 1997, published 2003):
# Where a name gives a salt, the structure may show the parent alone.
row,melting point [°C],SMILES
1,225 to 228,"COc1cc(-c2cccc(N)n2)ccc1OCCN(C)C (as salt: hydrochloride) [Example 6, 6-[4-(2-Dimethylamino-ethoxy)-3-methoxy-phenyl]-pyridin-2-ylamine]"
2,205 to 209,"Cc1cc(-c2cccc(N)n2)c(C)cc1OCCN(C)C (as salt: hydrochloride) [Example 110, 6-[4-(2-dimethylamino-ethoxy)-2,5-dimethyl-phenyl]-pyridin-2-ylamine]"
3,> 220,"Cc1cc(-c2cccc(N)n2)c(C)cc1OCCN1CCN(CCc2ccccc2)CC1 (as salt: hydrochloride) [Example 111, 6-[4-(2-(4-Phenethylpiperazin-1-yl)-ethoxy)-2,5-dimethyl-phenyl]-pyridin-2-ylamine]"
4,167 to 182,"COc1cc(-c2cccc(N)n2)ccc1OCCN1CCN(CCc2ccccc2)CC1 (as salt: hydrochloride) [Example 9, 6-{3-methoxy-4-[2-(4-phenethyl-piperazin-1-yl)-ethoxy]-phenyl}-pyridin-2-ylamine]"
5,210 to 216,"CCOc1cc(-c2cccc(N)n2)ccc1OCCN(C)C (as salt: hydrochloride) [Example 12, 6-[4-(2-Dimethylamino-ethoxy)-3-ethoxy-phenyl]-pyridin-2-ylamine]"
